# Results from PubChem BioAssay (NCI).
# Several values for one entry are separate records, joined by “and”; a condition that tells them apart may be missing. Identical values can stand only once.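 Following 48 hours of exposure in 96-well plates, responses at five concentrations were used to interpolate endpoints linearly. GI50 is the concentration that inhibits growth by half. TGI marks complete inhibition of growth.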
# What was measured:
# Assay in all cases: growth of human tumour cells (NCI), 48 h
# [1] = test system: A498 renal
# [2] = test system: BT-549 breast
# [3] = test system: HCC-2998 colon
# [4] = test system: HCT-116 colon
# [5] = test system: HL-60(TB) leukemia
# [6] = test system: HOP-62 NSCLC
# [7] = test system: MALME-3M melanoma
# [8] = test system: NCI-H460 lung
# [9] = test system: SF-539 CNS
# [10] = test system: T-47D breast
SMILES,GI50 [1] [µM],TGI [1],GI50 [2] [µM],TGI [2],GI50 [3],TGI [3],GI50 [4],TGI [4],GI50 [5],TGI [5],GI50 [6],TGI [6],GI50 [7] [µM],TGI [7],GI50 [8],TGI [8],GI50 [9],TGI [9],GI50 [10] [µM],TGI [10]
COCC(C(=O)OC1C/C=C/C=C/C(=O)OC(C(C)C(O)C(C)CCC(OC(=O)C(C)N(C)C)C(C)C(OC(C)=O)C(C)/C=C/N(C)C=O)C/C=C/C(OC)CC(C)C/C=C(\C)C(OC)CCC(C)C(O)C1C)N(C)C (configuration not stated),< 0.0001,< 0.0001 µM,0.00677,0.0915 µM,< 0.0001 µM,0.237 µM,< 0.0001 µM,0.00687 µM,< 0.0001 µM,< 0.0001 µM,< 0.0001 µM,0.0013 µM,< 0.0001,0.0225 µM,< 0.0001 µM,0.00436 µM,< 0.0001 µM,< 0.0001 µM,0.0479,> 1 µM
NC1=NCN(C2OC(CO)C(O)C2O)C(=O)N1 (configuration not stated),,804 µM,,765 µM,,1190 µM,,143 µM,,18.4 µM,,966 µM,,128 µM,,294 µM,,342 µM,,759 µM
CC(=O)OCC1OC(n2c3c(cc(C#N)c2=S)CCCC3)C(OC(C)=O)C(OC(C)=O)C1OC(C)=O (configuration not stated),,> 100 µM,,> 100 µM,41.3 µM and > 100 µM,> 100 µM,> 93.3 µM,> 100 µM,48.9 µM and > 100 µM,> 100 µM,83.3 µM and 19.9 µM,> 100 µM and 51.5 µM,,> 100 µM,,> 100 µM,> 100 µM and 48.1 µM,> 100 µM,> 100,> 100 µM
CCOC(=O)c1c(CN2CCN(C)CC2)nc2ccc(Cl)cc2c1-c1ccccc1,4.75,17.2 µM,7.1,20.8 µM,1.86 µM,4.4 µM,6.51 µM,19.1 µM,2.2 µM,6.22 µM,11.2 µM,25 µM,1.75,4.09 µM,3.9 µM,13 µM,8.72 µM,21 µM,9.41,24.4 µM
CCOC(=O)/C(=C\c1ccc2ccccc2c1)P(=O)(OCC)OCC,3.73,10.9 µM,2.3,5.88 µM,1.96 µM,3.43 µM,2.22 µM,5.08 µM,2.15 µM,5.16 µM,2.61 µM,7.24 µM,2.52,7.95 µM,2.71 µM,9.2 µM,2.29 µM,5.17 µM,2.55,9.09 µM
COc1cc2c3cc1Oc1c(OC)c(OC)cc4c1C(Cc1ccc(O)c(c1)Oc1ccc(cc1)CC3N(C)CC2)N(C)CC4 (configuration not stated),,48.4 µM,14.7,60.1 µM and 35.6 µM,10.9 µM,37.3 µM and 32.1 µM,5.56 µM,> 100 µM and 49.5 µM,20.2 µM,91.3 µM and 54.6 µM,24.3 µM,> 100 µM and 64.8 µM,8.17,> 100 µM and 23.8 µM,,32.4 µM and 38.8 µM,2.16 µM,,15,75.7 µM and 36.2 µM
COc1ccccc1NC(=O)C1=C(C)NC(C)=C(C(=O)Nc2ccccc2OC)C1c1ccco1,,38.4 µM,,> 100 µM,,40.7 µM,,37.4 µM,,8.51 µM,,74.6 µM,,> 100 µM,,> 43.9 µM,,20.7 µM,,> 100 µM
CC1OC(OC2C(O)C(O)C(O)C(O)C2O)C(N)CC1N=C(N)C(=O)O (configuration not stated),,> 100 µM,,> 100 µM,,> 100 µM,,> 100 µM,,> 100 µM,,> 100 µM,,> 100 µM,,> 100 µM,,> 100 µM,,> 100 µM
C=CC(=O)Nc1cc2c(Nc3ccc(F)c(Cl)c3)ncnc2cc1C#CC(C)(C)N1CCN(C)CC1,1.21,3.94 µM,1.6,3.47 µM,1.83 µM,4.25 µM,1.52 µM,3.01 µM,1.88 µM,5.08 µM,3.53 µM,5.9 µM,1.49,5.05 µM,2.91 µM,6.69 µM,1.48 µM,2.99 µM,0.752,5.32 µM
COc1cc(-c2nn(-c3cccc(NC(=O)CCNc4ccc(N5CCOCC5)cc4)c3)cc2-c2ccncc2)ccc1Cl,2.52,17.4 µM,3.41,31 µM,4.77 µM,> 100 µM,2.31 µM,> 100 µM,3.71 µM,> 100 µM,3.48 µM,22.3 µM,2.31,6.93 µM,2.95 µM,30 µM,2.91 µM,19.4 µM,1.99,7.91 µM
CC(C)OP(=O)(O)c1ncc(-c2ccc(C(F)(F)F)cc2)c(NC2CCCCCC2)n1,> 100,> 100 µM,> 100,> 100 µM,> 100 µM,> 100 µM,> 100 µM,> 100 µM,38.2 µM,> 100 µM,81.2 µM,> 100 µM,> 100,> 100 µM,> 100 µM,> 100 µM,> 100 µM,> 100 µM,34.9,> 100 µM
NCCCN=c1ccc2c3c1c(O)c1c(O)ccc(=O)c1c3[nH]n2CCNCCO,,7.19 µM and 8.57 µM,,5.31 µM,1.6 µM and 3.18 µM,11.4 µM and 26.8 µM,2.06 µM and 1.46 µM,9.67 µM and 20.2 µM,0.665 µM and 0.556 µM,1.7 µM and 9.33 µM,0.484 µM,11.1 µM and 9.68 µM,,6 µM,0.117 µM and 0.12 µM,3.66 µM and 15.7 µM,0.854 µM and 1.53 µM,5.31 µM and 7.66 µM,,15.8 µM
COc1ccc(C(O)c2cc3c(N)c(C(=O)Nc4cccc(Br)c4C)sc3nc2C)cc1 (configuration not stated),0.082,1.28 µM,0.479,15.4 µM,0.426 µM,2.84 µM,0.141 µM,7.46 µM,0.104 µM,2.34 µM,0.287 µM,> 30.2 µM,0.199,> 33.3 µM,0.121 µM,1.65 µM,0.131 µM,2.88 µM,0.346,> 33.3 µM
CC1(C)C2CCC13C(=O)C1OC3(C2)C2C(=O)c3c(ccc4c3ccc3ccccc34)C(=O)C12 (configuration not stated),> 100,> 100 µM,> 80.3,> 100 µM,> 100 µM,> 100 µM,> 36.9 µM,> 57 µM,,11.1 µM,> 100 µM,> 100 µM,25.2,> 89.2 µM,57.3 µM,> 100 µM,> 64.4 µM,> 100 µM,48,> 100 µM
COc1cc2cc(Oc3cccc(NC(=O)Nc4cc(C(F)(F)F)cc(C(F)(F)F)c4)c3)c(C)nc2cc1OC,1.6,4.29 µM,1.75,3.76 µM,1.53 µM,3.15 µM,0.589 µM,1.92 µM,1.58 µM,4.37 µM,1.35 µM,2.88 µM,1.1,3.46 µM,0.96 µM,2.72 µM,1.45 µM,3.21 µM,1.48,5.67 µM
CC(=O)Oc1cc2cnc3c4cc(OC(C)=O)c(OC(C)=O)cc4ccc3c2cc1OC(C)=O,0.443,1.84 µM,1.35,8.4 µM,3.74 µM,> 100 µM,0.471 µM,3.86 µM,3.26 µM,19.8 µM,1.86 µM,59.4 µM,1.55,9.33 µM,0.569 µM,> 100 µM,1.3 µM,4.46 µM,0.898,> 100 µM
Cc1ccc(OC(=O)N2C/C(=C\c3ccccc3)C(=O)/C(=C/c3ccccc3)C2)cc1,,> 100 µM,,88 µM,,> 37 µM,,5.28 µM,,15.6 µM,,38.7 µM,,> 100 µM,,> 100 µM,,66.2 µM,,> 100 µM
CC[C@H]1OC(=O)[C@H](C)[C@@H](O[C@H]2C[C@@](C)(OC)[C@@H](O)[C@H](C)O2)[C@H](C)[C@@H](O[C@@H]2O[C@H](C)C[C@H](N(C)C)[C@H]2O)[C@](C)(OC)C/C(C)=C2/O[C@@]1(C)C=C2C,1.75,3.59 µM,1.66,3.28 µM,1.14 µM,2.53 µM,1.93 µM,4.36 µM,1.86 µM,4.16 µM,2.31 µM,4.74 µM,1.58,2.97 µM,1.81 µM,3.35 µM,1.62 µM,2.99 µM,1.96,4.56 µM
COc1cc(N(C)C)c(OC)cc1C=C1C=CC=C1,,> 100 µM,,> 100 µM,,> 100 µM,,> 100 µM,,> 100 µM,,> 100 µM,,> 100 µM,,> 100 µM,,> 100 µM,,> 100 µM
CN1CC[C@H](c2c(O)cc(O)c3c(=O)cc(-c4ccccc4Cl)oc23)[C@H](O)C1,0.0215,0.062 µM,0.0807,0.599 µM,0.124 µM,0.761 µM,0.0123 µM,> 10 µM,0.0508 µM,> 2.49 µM,0.0515 µM,> 2.62 µM,0.154,0.594 µM,,> 10 µM,0.139 µM,0.542 µM,0.0737,> 2.84 µM
COc1cc(/C=C2\SC(N3CCCCC3)=NC2=O)ccc1OCCCCCCOc1ccc(/C=C2\SC(N3CCCCC3)=NC2=O)cc1OC,12.8,46.2 µM,4.29,22.8 µM,13.6 µM,27 µM,12.6 µM,31.2 µM,14.6 µM,84.4 µM,4.05 µM,16.3 µM,3.87,30 µM,6.84 µM,23.8 µM,6.95 µM,24.2 µM,8.9,44.5 µM
C=C1C[C@@H]2O[C@H]3[C@H]4[C@@H](CC[C@@](C)(OC(=O)CCC)[C@H]42)[C@@H](C)C(=O)O[C@@]3(C)CC[C@H]1OO,> 100,> 100 µM,36,> 100 µM,15.9 µM,29.4 µM,24.3 µM,54.6 µM,12.2 µM,28.1 µM,25.7 µM,55.3 µM,18,37.1 µM,19.3 µM,35.8 µM,21 µM,41.1 µM,21.4,40 µM
COc1ccc(-c2c(N)noc2-c2cc(OC)c3c(c2)OCCO3)cc1,< 0.01,0.303 µM,0.0285,1.35 µM,0.0173 µM,0.902 µM,< 0.01 µM,6.37 µM,0.0102 µM,0.0434 µM,< 0.0123 µM,> 54.8 µM,23.6,> 100 µM,< 0.01 µM,11.9 µM,0.0121 µM,1.28 µM,0.64,41.2 µM
CC1(C)N=C(N)N=C(N)N1c1cccc(CCc2ccccc2)c1,3.57,96.9 µM,0.577,> 46.7 µM,1.69 µM,> 38.7 µM,0.208 µM,> 100 µM,1.89 µM,28.7 µM,1.29 µM,> 100 µM,1.04,> 68.8 µM,0.257 µM,> 39.3 µM,1.37 µM,> 100 µM,2.95,> 100 µM
COc1cc(NC2CCCCC2O)c2nc(-c3ccc(Cl)cc3)ccc2c1 (configuration not stated),6.66,34.8 µM,40.7,> 100 µM,13.4 µM,> 100 µM,12.9 µM,> 100 µM,7.57 µM,63 µM,5.96 µM,46.7 µM,7.45,28 µM,3.35 µM,12.3 µM,10.5 µM,51.4 µM,4.9,> 100 µM
